Assay results taken from patent US20130165428A1, “XANTHINE DERIVATIVES, THE PREPARATION THEREOF AND THEIR USE AS PHARMACEUTICAL COMPOSITIONS” (Boehringer Ingelheim Pharma GmbH & Co. KG, priority 2001, published 2013).

Test system: not given
Assay: not given
Conditions: not given

melting point [°C] | SMILES
129 to 130.2 | CC(C)=CCn1c(N2CCCC(N)C2)nc2c1c(=O)n(CCc1ccc(C)cc1)c(=O)n2C (stereo not shown) [Example 1(100), 1-[2-(4-methyl-phenyl)-ethyl]-3-methyl-7-(3-methyl-2-buten-1-yl)-8-(3-amino-piperidin-1-yl)-xanthine]
147 | Cn1c(=O)c2c(nc(N3CCCC(N)C3)n2C)n(C)c1=O (stereo not shown) [Example 1(115), 1,3,7-trimethyl-8-(3-amino-piperidin-1-yl)-xanthine]
140.5 to 143 | CC(C)=CCn1c(NCC(C)(C)N)nc2c1c(=O)n(C)c(=O)n2C [Example 1(134), 1,3-dimethyl-7-(3-methyl-2-buten-1-yl)-8-(2-amino-2-methyl-propylamino)-xanthine]
141 to 144 | CC(C)=CCn1c(NC[C@@H](C)N)nc2c1c(=O)n(C)c(=O)n2C [Example 1(135), 1,3-dimethyl-7-(3-methyl-2-buten-1-yl)-8-((R)-2-amino-propylamino)-xanthine]
150 | Cn1c(=O)c2c(nc(N3CCC(N)C3)n2Cc2ccccc2)n(C)c1=O (stereo not shown) [Example 1, 1,3-dimethyl-7-benzyl-8-(3-amino-pyrrolidin-1-yl)-xanthine]
102 to 105 | COC(=O)Cn1c(=O)c2c(nc(N3CCC[C@H](N)C3)n2CC=C(C)C)n(C)c1=O [Example 2(19), 1-[(methoxycarbonyl)-methyl]-3-methyl-7-(3-methyl-2-buten-1-yl)-8-((S)-3-amino-piperidin-1-yl)-xanthine]
142 to 144 | CCOC(=O)c1ccc(CCn2c(=O)c3c(nc(N4CCC[C@H](N)C4)n3CC=C(C)C)n(C)c2=O)cc1 [Example 2(21), 1-{2-[4-(ethoxycarbonyl)-phenyl]-ethyl}-3-methyl-7-(3-methyl-2-buten-1-yl)-8-((S)-3-amino-piperidin-1-yl)-xanthine]
162 to 163.5 | CC(C)=CCn1c(N2CCCC(N)C2)nc2c1c(=O)n(CCc1cc(F)cc(F)c1)c(=O)n2C (stereo not shown) [Example 2(36), 1-[2-(3,5-difluoro-phenyl)-ethyl]-3-methyl-7-(3-methyl-2-buten-1-yl)-8-(3-amino-piperidin-1-yl)-xanthine]
115 to 117 | CC(C)=CCn1c(N2CCCC(N)C2)nc2c1c(=O)n(C)c(=O)n2C(C)C (stereo not shown) [Example 2(60), 1-methyl-3-isopropyl-7-(3-methyl-2-buten-1-yl)-8-(3-amino-piperidin-1-yl)-xanthine]
146 to 149 | CC(C)=CCn1c(N2CCCC(N)C2)nc2c1c(=O)n(C)c(=O)n2CCC#N (stereo not shown) [Example 2(62), 1-methyl-3-(2-cyano-ethyl)-7-(3-methyl-2-buten-1-yl)-8-(3-amino-piperidin-1-yl)-xanthine]
138 | CC(C)=CCn1c(N(C)CC(N)C(=O)N2CCCC2)nc2c1c(=O)n(C)c(=O)n2C (stereo not shown) [Example 2(142), 1,3-dimethyl-7-(3-methyl-2-buten-1-yl)-8-{N-[2-amino-3-oxo-3-(pyrrolidin-1-yl)-propyl]-N-methyl-amino}-xanthine]
226 to 228 | CC(C)=CCn1c(N2CCC[C@H](N)C2)nc2c1c(=O)n(CCC(=O)O)c(=O)n2C [Example 6(4), 1-(2-carboxy-ethyl)-3-methyl-7-(3-methyl-2-buten-1-yl)-8-((S)-3-amino-piperidin-1-yl)-xanthine]
228 to 235 | CC(C)=CCn1c(N2CCCC(N)C2)nc2c1c(=O)n(CCc1ccccc1)c(=O)n2CC(=O)O (stereo not shown) [Example 6(5), 1-(2-phenyl-ethyl)-3-carboxymethyl-7-(3-methyl-2-buten-1-yl)-8-(3-amino-piperidin-1-yl)-xanthine]

Biological target: T1, DPP-IV (Homo sapiens, UniProt P27487)
T1 construct: an extract of the human colon carcinoma cell line Caco-2 is used as the DPP IV source; host or cells: Caco-2 (differentiated to induce DPP-IV expression), Nonidet-P40 solubilised extract
Assay: DPP-IV assay with extract of Caco-2 cells as DPP IV source
Format: biochemical
Conditions: extract of human colon carcinoma cell line Caco-2 as DPP IV source, substrate AFC 100 μM, 60 minutes, ambient temperature; read-out: DPP IV inhibition IC50
Procedure: This cell line was obtained from the American Type Culture Collection (ATCC HTB 37). […] The cell extract was obtained from cells solubilised in a buffer (10 mM Tris HCl, 0.15 M NaCl, 0.04 t.i.u. aprotinin, 0.5% Nonidet-P40, pH 8.0) by centrifugation at 35,000 g for 30 minutes at 4° C. (to remove cell debris).
The DPP-IV assay was carried out as follows:
50 μl of substrate solution (AFC; AFC is amido-4-trifluoromethylcoumarin), final concentration 100 μM, were placed in black microtitre plates. 20 μl of assay buffer (final concentrations 50 mM Tris HCl pH 7.8, 50 mM NaCl, 1% DMSO) was pipetted in. The reaction was started by the addition of 30 μl of solubilised Caco-2 protein (final concentration 0.14 μg of protein per well). The test substances under investigation were typically added prediluted to 20 μl, while the volume of assay buffer was then reduced accordingly. The reaction was carried out at ambient temperature, the incubation period was 60 minutes. […] Dummy values (corresponding to 0% activity) were obtained in mixtures with no Caco-2 protein (volume replaced by assay buffer), control values (corresponding to 100% activity) were obtained in mixtures without any added substance.

T1 sequence (P27487 whole entry): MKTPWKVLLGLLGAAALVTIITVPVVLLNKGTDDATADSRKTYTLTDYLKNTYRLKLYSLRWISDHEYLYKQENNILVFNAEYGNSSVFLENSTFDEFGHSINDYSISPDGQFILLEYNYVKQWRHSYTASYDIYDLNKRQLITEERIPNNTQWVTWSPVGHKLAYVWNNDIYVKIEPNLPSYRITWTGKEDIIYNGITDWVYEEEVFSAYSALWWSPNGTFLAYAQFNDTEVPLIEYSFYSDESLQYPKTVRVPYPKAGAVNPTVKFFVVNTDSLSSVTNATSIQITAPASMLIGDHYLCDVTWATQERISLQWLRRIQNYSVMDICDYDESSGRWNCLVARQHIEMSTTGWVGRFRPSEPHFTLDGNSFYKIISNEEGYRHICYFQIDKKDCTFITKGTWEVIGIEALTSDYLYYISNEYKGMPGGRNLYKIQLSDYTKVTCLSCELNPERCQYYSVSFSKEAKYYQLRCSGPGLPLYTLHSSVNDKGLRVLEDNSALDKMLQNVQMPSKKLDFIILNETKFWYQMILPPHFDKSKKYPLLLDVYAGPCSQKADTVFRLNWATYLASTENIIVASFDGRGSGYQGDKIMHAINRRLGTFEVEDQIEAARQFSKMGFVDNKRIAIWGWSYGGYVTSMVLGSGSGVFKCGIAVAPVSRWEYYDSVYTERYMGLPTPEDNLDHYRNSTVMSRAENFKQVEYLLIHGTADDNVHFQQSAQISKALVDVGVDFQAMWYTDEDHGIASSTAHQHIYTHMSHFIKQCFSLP

SMILES | IC50 [µM]
CC(C)=CCn1c(N[C@@H]2CCCC[C@@H]2N)nc2c1c(=O)n(C)c(=O)n2C (relative stereo) [1(6), 1,3-dimethyl-7-(3-methyl-2-buten-1-yl)-8-[(cis-2-amino-cyclohexyl)amino]-xanthine] | 0.23
CC(C)=CCn1c(N2CCCC(N)C2)nc2c1c(=O)[nH]c(=O)n2C (stereo not shown) [1(15), 3-methyl-7-(3-methyl-2-buten-1-yl)-8-(3-amino-piperidin-1-yl)-xanthine] | 0.624
CCn1c(=O)c2c(nc(N3CCCC(N)C3)n2CC=C(C)C)n(C)c1=O (stereo not shown) [1(16), 1-ethyl-3-methyl-7-(3-methyl-2-buten-1-yl)-8-(3-amino-piperidin-1-yl)-xanthine] | 0.078
CC(C)=CCn1c(N2CCCC(N)C2)nc2c1c(=O)n(C(C)C)c(=O)n2C (stereo not shown) [1(19), 1-(2-propyl)-3-methyl-7-(3-methyl-2-buten-1-yl)-8-(3-amino-piperidin-1-yl)-xanthine] | 2.77
C=CCn1c(=O)c2c(nc(N3CCCC(N)C3)n2CC=C(C)C)n(C)c1=O (stereo not shown) [1(21), 1-(2-propen-1-yl)-3-methyl-7-(3-methyl-2-buten-1-yl)-8-(3-amino-piperidin-1-yl)-xanthine] | 0.124
CC(C)=CCn1c(N2CCCC(N)C2)nc2c1c(=O)n(CCO)c(=O)n2C (stereo not shown) [1(27), 1-(2-hydroxyethyl)-3-methyl-7-(3-methyl-2-buten-1-yl)-8-(3-amino-piperidin-1-yl)-xanthine] | 0.125
COCCn1c(=O)c2c(nc(N3CCCC(N)C3)n2CC=C(C)C)n(C)c1=O (stereo not shown) [1(28), 1-(2-methoxyethyl)-3-methyl-7-(3-methyl-2-buten-1-yl)-8-(3-amino-piperidin-1-yl)-xanthine] | 0.166
CC(C)=CCn1c(N2CCCC(N)C2)nc2c1c(=O)n(CCN(C)C)c(=O)n2C (stereo not shown) [1(30), 1-[2-(dimethylamino)ethyl]-3-methyl-7-(3-methyl-2-buten-1-yl)-8-(3-amino-piperidin-1-yl)-xanthine] | 2.05
CCn1c(=O)n(C)c(=O)c2c1nc(N1CCCC(N)C1)n2Cc1ccccc1 (stereo not shown) [1(34), 1-methyl-3-ethyl-7-benzyl-8-(3-amino-piperidin-1-yl)-xanthine] | 0.205
CC(C)=CCn1c(N(C)CCN)nc2c1c(=O)n(C)c(=O)n2C [1(35), 1,3-dimethyl-7-(3-methyl-2-buten-1-yl)-8-[N-(2-aminoethyl)-methylamino]-xanthine] | 0.095
CC(C)=CCn1c(N2CCCC(N)C2)nc2c1c(=O)n(CCc1cccc(C)c1)c(=O)n2C (stereo not shown) [1(55), 1-[2-(3-methyl-phenyl)-ethyl]-3-methyl-7-(3-methyl-2-buten-1-yl)-8-(3-amino-piperidin-1-yl)-xanthine] | 0.142
Cc1cccc(-n2c(N3CCCC(N)C3)nc3c2c(=O)n(C)c(=O)n3C)c1 (stereo not shown) [1(62), 1,3-dimethyl-7-(3-methyl-phenyl)-8-(3-amino-piperidin-1-yl)-xanthine] | 0.167
Cn1c(=O)c2c(nc(N3CCCC(N)C3)n2Cc2ccccc2)n(CCc2ccccc2)c1=O (stereo not shown) [1(70), 1-methyl-3-(2-phenyl-ethyl)-7-benzyl-8-(3-amino-piperidin-1-yl)-xanthine] | 0.032
CC(C)=CCn1c(N2CCCNCC2)nc2c1c(=O)n(CCc1ccccc1)c(=O)n2C [1(97), 1-(2-phenyl-ethyl)-3-methyl-7-(3-methyl-2-buten-1-yl)-8-(homopiperazin-1-yl)-xanthine] | 0.212
Cn1c(=O)c2c(nc(N3CCCC(N)C3)n2Cc2ccccc2C#N)n(C)c1=O (stereo not shown) [1(121), 1,3-dimethyl-7-(2-cyano-benzyl)-8-(3-amino-piperidin-1-yl)-xanthine] | 0.01

Next, values leading:

IC50 [µM] | SMILES
0.064 | CC(C)=CCn1c(N2CCCC(N)C2)nc2c1c(=O)n(C)c(=O)n2CC(=O)c1ccccc1 (stereo not shown) [2(56), 1-methyl-3-(2-phenyl-2-oxo-ethyl)-7-(3-methyl-2-buten-1-yl)-8-(3-amino-piperidin-1-yl)-xanthine]
0.022 | CC(C)=CCn1c(N2CCCC(N)C2)nc2c1c(=O)n(C)c(=O)n2CCc1ccc(F)cc1 (stereo not shown) [2(77), 1-methyl-3-[2-(4-fluoro-phenyl)-ethyl]-7-(3-methyl-2-buten-1-yl)-8-(3-amino-piperidin-1-yl)-xanthine]
0.017 | C#CCOc1cccc(C(=O)Cn2c(=O)c3c(nc(N4CCCC(N)C4)n3CC=C(C)C)n(C)c2=O)c1 (stereo not shown) [2(85), 1-{2-oxo-2-[3-(2-propyn-1-yloxy)-phenyl]-ethyl}-3-methyl-7-(3-methyl-2-buten-1-yl)-8-(3-amino-piperidin-1-yl)-xanthine]
0.006 | CC(C)=CCn1c(N2CCCC(N)C2)nc2c1c(=O)n(CC(=O)c1cccc(OCC#N)c1)c(=O)n2C (stereo not shown) [2(88), 1-[2-(3-cyanomethoxy-phenyl)-2-oxo-ethyl]-3-methyl-7-(3-methyl-2-buten-1-yl)-8-(3-amino-piperidin-1-yl)-xanthine]
0.02 | CC(C)=CCn1c(N2CCCC(N)C2)nc2c1c(=O)n(Cc1ccccn1)c(=O)n2C (stereo not shown) [2(113), 1-[(pyridin-2-yl)methyl]-3-methyl-7-(3-methyl-2-buten-1-yl)-8-(3-amino-piperidin-1-yl)-xanthine]
0.022 | CC(C)=CCn1c(N2CCCC(N)C2)nc2c1c(=O)n(Cc1cccc3ccccc13)c(=O)n2C (stereo not shown) [2(127), 1-[(1-naphthyl)methyl]-3-methyl-7-(3-methyl-2-buten-1-yl)-8-(3-amino-piperidin-1-yl)-xanthine]
